Several values for one entry are separate records, joined by “and”; a condition that tells them apart may be missing. Equal values may be shown once.
Test: xn = mol fraction of the nth substance listed

CN(C)C=O + O
Settings | viscosity
293.15 K, 101 kPa, x1 = 0.0254 | 1.471 mPa·s
293.15 K, 101 kPa, x1 = 0.0555 | 1.784 mPa·s
293.15 K, 101 kPa, x1 = 0.0915 | 2.173 mPa·s
293.15 K, 101 kPa, x1 = 0.1355 | 2.435 mPa·s
293.15 K, 101 kPa, x1 = 0.1904 | 2.755 mPa·s
293.15 K, 101 kPa, x1 = 0.2608 | 2.969 mPa·s
293.15 K, 101 kPa, x1 = 0.2921 | 2.981 mPa·s
293.15 K, 101 kPa, x1 = 0.304 | 3.018 mPa·s
293.15 K, 101 kPa, x1 = 0.3199 | 2.973 mPa·s
293.15 K, 101 kPa, x1 = 0.3544 | 2.937 mPa·s
293.15 K, 101 kPa, x1 = 0.4137 | 2.705 mPa·s
293.15 K, 101 kPa, x1 = 0.4848 | 2.515 mPa·s
293.15 K, 101 kPa, x1 = 0.5714 | 2.002 mPa·s
293.15 K, 101 kPa, x1 = 0.6792 | 1.674 mPa·s
293.15 K, 101 kPa, x1 = 0.8171 | 1.276 mPa·s
293.15 K, 101 kPa, x2 = 0.1 | 0.9649 mPa·s and 0.9619 mPa·s
293.15 K, 101 kPa, x2 = 0.2 | 1.129 mPa·s and 1.125 mPa·s and 1.65 mPa·s
293.15 K, 101 kPa, x2 = 0.3 | 1.357 mPa·s and 1.351 mPa·s
293.15 K, 101 kPa, x2 = 0.4 | 1.674 mPa·s and 1.67 mPa·s and 2.25 mPa·s
293.15 K, 101 kPa, x2 = 0.5 | 2.177 mPa·s and 2.088 mPa·s
293.15 K, 101 kPa, x2 = 0.6 | 2.564 mPa·s and 2.556 mPa·s
293.15 K, 101 kPa, x2 = 0.7 | 2.885 mPa·s and 2.875 mPa·s
293.15 K, 101 kPa, x2 = 0.8 | 2.761 mPa·s and 2.754 mPa·s
293.15 K, 101 kPa, x2 = 0.9 | 2.019 mPa·s and 2.015 mPa·s
293.15 K, 101 kPa, x2 = 0.92 | 1.818 mPa·s and 1.813 mPa·s
293.15 K, 101 kPa, x2 = 0.94 | 1.622 mPa·s and 1.616 mPa·s
293.15 K, 101 kPa, x2 = 0.96 | 1.408 mPa·s and 1.403 mPa·s
293.15 K, 101 kPa, x2 = 0.98 | 1.203 mPa·s and 1.2 mPa·s
293.15 K, 101.33 kPa, x1 = 0.0217 | 1.225 mPa·s
293.15 K, 101.33 kPa, x1 = 0.0466 | 1.483 mPa·s
293.15 K, 101.33 kPa, x1 = 0.0989 | 2.011 mPa·s
293.15 K, 101.33 kPa, x1 = 0.1478 | 2.357 mPa·s
293.15 K, 101.33 kPa, x1 = 0.196 | 2.65 mPa·s
293.15 K, 101.33 kPa, x1 = 0.2481 | 2.888 mPa·s
293.15 K, 101.33 kPa, x1 = 0.2859 | 2.908 mPa·s
293.15 K, 101.33 kPa, x1 = 0.3728 | 2.707 mPa·s
293.15 K, 101.33 kPa, x1 = 0.4919 | 2.262 mPa·s
293.15 K, 101.33 kPa, x1 = 0.5936 | 1.748 mPa·s
293.15 K, 101.33 kPa, x1 = 0.7991 | 1.184 mPa·s
293.15 K, 101.33 kPa, x1 = 0.8795 | 1.073 mPa·s
298.15 K, 101 kPa, x2 = 0.1 | 0.9018 mPa·s and 0.8984 mPa·s
298.15 K, 101 kPa, x2 = 0.3 | 1.233 mPa·s and 1.232 mPa·s
298.15 K, 101 kPa, x2 = 0.4 | 1.508 mPa·s and 1.503 mPa·s
298.15 K, 101 kPa, x2 = 0.5 | 1.853 mPa·s and 1.847 mPa·s
298.15 K, 101 kPa, x2 = 0.6 | 2.226 mPa·s and 2.225 mPa·s
298.15 K, 101 kPa, x2 = 0.7 | 2.477 mPa·s and 2.469 mPa·s
298.15 K, 101 kPa, x2 = 0.8 | 2.345 mPa·s
298.15 K, 101 kPa, x2 = 0.9 | 1.746 mPa·s and 1.744 mPa·s
298.15 K, 101 kPa, x2 = 0.92 | 1.583 mPa·s and 1.576 mPa·s
298.15 K, 101 kPa, x2 = 0.94 | 1.412 mPa·s and 1.408 mPa·s
298.15 K, 101 kPa, x2 = 0.96 | 1.234 mPa·s
298.15 K, 101 kPa, x2 = 0.98 | 1.065 mPa·s and 1.063 mPa·s
302.15 K, 101 kPa, x1 = 0.0254 | 1.266 mPa·s
302.15 K, 101 kPa, x1 = 0.0555 | 1.535 mPa·s
302.15 K, 101 kPa, x1 = 0.0915 | 1.856 mPa·s
302.15 K, 101 kPa, x1 = 0.1355 | 2.071 mPa·s
302.15 K, 101 kPa, x1 = 0.1904 | 2.333 mPa·s
302.15 K, 101 kPa, x1 = 0.2608 | 2.542 mPa·s
302.15 K, 101 kPa, x1 = 0.2921 | 2.58 mPa·s
302.15 K, 101 kPa, x1 = 0.304 | 2.604 mPa·s
302.15 K, 101 kPa, x1 = 0.3199 | 2.572 mPa·s
302.15 K, 101 kPa, x1 = 0.3544 | 2.526 mPa·s
302.15 K, 101 kPa, x1 = 0.4137 | 2.327 mPa·s
302.15 K, 101 kPa, x1 = 0.4848 | 2.201 mPa·s
302.15 K, 101 kPa, x1 = 0.5714 | 1.812 mPa·s
302.15 K, 101 kPa, x1 = 0.6792 | 1.533 mPa·s
302.15 K, 101 kPa, x1 = 0.8171 | 1.176 mPa·s
303.15 K, 101 kPa, x2 = 0.1 | 0.8402 mPa·s and 0.8389 mPa·s
303.15 K, 101 kPa, x2 = 0.2 | 0.9593 mPa·s and 0.9567 mPa·s
303.15 K, 101 kPa, x2 = 0.3 | 1.137 mPa·s and 1.122 mPa·s
303.15 K, 101 kPa, x2 = 0.4 | 1.354 mPa·s and 1.352 mPa·s
303.15 K, 101 kPa, x2 = 0.5 | 1.641 mPa·s and 1.639 mPa·s
303.15 K, 101 kPa, x2 = 0.6 | 1.943 mPa·s and 1.939 mPa·s
303.15 K, 101 kPa, x2 = 0.7 | 2.134 mPa·s and 2.132 mPa·s
303.15 K, 101 kPa, x2 = 0.8 | 2.026 mPa·s and 2.02 mPa·s

Source: the CheMixHub viscosity set
